Experimental data from US20250326725A1, “PI4-Kinase Inhibitors and Methods of Using the Same” (The Board of Trustees of the Leland Stanford Junior …, priority 2019, published 2025).
Values joined by “and” are separate entries in the source; they are usually repeats but may differ in a detail not shown here. Equal entries are not always repeated. Where two headings read alike, the source gives them in different places.

Assays:
[1] = system: HRV; assay: Rhinovirus antiviral assay (EC50); format: cell-based; settings: Human rhinovirus sp.
[2] = Cell toxicity (CC50) in EV68 assay; settings: EV68 CC50
[3] = Cell toxicity (CC50) in HRV assay; settings: human, HRV CC50
[4] = Microsomal stability, mouse liver microsomes; format: in vitro ADME
[5] = Microsomal stability, human liver microsomes; format: in vitro ADME
[6] = system: EV71; assay: EV71 antiviral assay (EC50); format: cell-based, Enterovirus 71
[7] = Caco-2 permeability assay; format: in vitro ADME; settings: human, read-out: Caco2 Papp × 1e−6 cm/s
Protocol: Compounds of interest were tested in a variety of cell-based assays for antiviral activity.

[8] = system: HCV; assay: Anti-HCV assay (EC50); format: cell-based; settings: Hepatitis C virus, read-out: HCV EC50
Protocol: Anti-HCV assay: Anti-HCV assays are performed as described by Cho et al. “Identification of a class of HCV inhibitors directed against the nonstructural protein NS4B.” Sci. Transl. Med. 2011; 2(15):15ra6.

[9] = Cell toxicity (CC50) in EV71 assay; settings: EV71 CC50
[10] = system: EV68; assay: EV68 antiviral assay (EC50); format: cell-based
[11] = system: cells (EV68 assay); assay: Cell toxicity (CC50) in EV68 assay
[12] = system: HeLa S3 cells; assay: Cell toxicity (CC50) in HRV assay; settings: human
[13] = system: cells (EV71 assay); assay: Cell toxicity (CC50) in EV71 assay
[14] = target: T1, PI4KIIIbeta (Bos taurus, UniProt O02810); assay: PI-kinase assay, PI4KIIIbeta (Table 4); format: biochemical, bovine
T1 construct: made in house; host or cells: COS-7 cells, transient transfection, anti-HA immunoprecipitate on protein G Sepharose beads
Protocol: (§1) PI-kinase assay: Compounds are tested in C.1.1. PT kinase assays as described by Shokat et al., “A membrane capture assay for lipid kinase activity.” Nat. Protoc. 2007; 2(10):2459-66.
(§2) General methods of materials: In the assays described here, p110α-p85 complex and p110γ were acquired from Millipore. Assays were performed with La-phosphatidylinositol (Avanti) as described in Knight et al. Nat Protoc. 2007; 2 (10):2459-66. Inhibitor series were prepared 10% DMSO as 5× stocks for the assay. Assays of HsVps34 were performed as described in Knight et al, except that the final assay buffer composition used was changed to 20 mM HEPES 7.5, 100 mM NaCl, 3 mM MgCl, 1 mg/mL PI and 44 nM hvps34 was used in the assay. […] COS-7 cells were cultured in 10 cm dishes and transfected at 70% confluence with 10 μg of plasmid DNA (HA-tagged bovine PI4KIIIβ. HA-tagged human PI4KIIIα) using Lipofectamine 2000 and 5 ml Opti-MEM following the manufacturer's instructions. After 5 hours the transfection medium was replaced with 10 ml complete DMEM. 36 hrs post transfection, cells were washed once with 5 ml PBS (pH 7.4) and lysed in 1 ml of lysis buffer (1) on ice. Lysates were collected by scraping and after 15 min they were centrifuged at 13.000 rpm for 10 min. To the lysates was added 200 gi of protein G Sepharose 4 fast flow beads that were prewashed with PBS and lysis buffer and 2 sg of anti-HA antibody. The tubes were then incubated overnight at 4 degrees C. in a tube rotator. The Sepharose beads in the lysate were washed twice with 150 mM NaCl in RIPA buffer, twice with RIPA buffer and once with kinase buffer (50 mM Tris/HCl, pH 7.5, 20 mM MgCl2, 1 mM EFTA, 1 mM PtdIns, 0.4% Triton X-100, 0.5 mg/mL BSA) and finally the beads were resuspended in 200 μL kinase buffer. Kinase reactions were run in a mixture of 45 μL of PI buffer (1 mM P1 in kinase buffer), 10 μL of immunoprecipitated beads, 2 µL of inhibitors (dissolved and diluted in DMSO) or DMSO and 5 μL of [γ-^32P]-ATP (1 mM and 2 μCi/tube). The immunoprecipitates in PI buffer were pre-incubated with the drugs for 20 min prior the initiation of kinase reaction by adding ATP and the reactions were carried out for 30 min in 15 ml polyproplyene tubes. Reactions were terminated by addition of 3 ml of CHCl3:CH3OH:HCl (200:100:0.75) followed by 0.6 ml of 0.61N HCl to induce phase separation. The mixtures were vortexed, centrifuged at 2000 rpm for 2 min and the upper phase was discarded. To the lower phase was added 1.5 ml of CHCl3:CH3OH:0.6N HCl (3:48:47) and the mixture vortexed and centrifuged at 2000 rpm for 2 ruin. The lower phase was then transferred to counting vials and evaporated. Samples were counted in a scintillation beta counter after adding 5 ml of Instafluor (Perkin-Elmer).
(§3) Selected compounds of Tables 1-3 were prepared and tested for inhibition activity in a variety of kinase assays.

[15] = target: T2, PI4KIIIalpha (Homo sapiens, UniProt P42356); assay: PI-kinase assay, PI4KIIIalpha (Table 4); format: biochemical
T2 construct: made in house; host or cells: COS-7 cells, transient transfection, anti-HA immunoprecipitate on protein G Sepharose beads
Protocol: as §1, §2, §3

[16] = read-out: HLM/MLM (t ½ min): MLM
[17] = with ritonavir (concentration not stated), + Ritonavir, read-out: HLM/MLM (t ½ min) + Ritonavir: MLM
[18] = read-out: HLM/MLM (t ½ min): HLM

T1 sequence (O02810 whole entry): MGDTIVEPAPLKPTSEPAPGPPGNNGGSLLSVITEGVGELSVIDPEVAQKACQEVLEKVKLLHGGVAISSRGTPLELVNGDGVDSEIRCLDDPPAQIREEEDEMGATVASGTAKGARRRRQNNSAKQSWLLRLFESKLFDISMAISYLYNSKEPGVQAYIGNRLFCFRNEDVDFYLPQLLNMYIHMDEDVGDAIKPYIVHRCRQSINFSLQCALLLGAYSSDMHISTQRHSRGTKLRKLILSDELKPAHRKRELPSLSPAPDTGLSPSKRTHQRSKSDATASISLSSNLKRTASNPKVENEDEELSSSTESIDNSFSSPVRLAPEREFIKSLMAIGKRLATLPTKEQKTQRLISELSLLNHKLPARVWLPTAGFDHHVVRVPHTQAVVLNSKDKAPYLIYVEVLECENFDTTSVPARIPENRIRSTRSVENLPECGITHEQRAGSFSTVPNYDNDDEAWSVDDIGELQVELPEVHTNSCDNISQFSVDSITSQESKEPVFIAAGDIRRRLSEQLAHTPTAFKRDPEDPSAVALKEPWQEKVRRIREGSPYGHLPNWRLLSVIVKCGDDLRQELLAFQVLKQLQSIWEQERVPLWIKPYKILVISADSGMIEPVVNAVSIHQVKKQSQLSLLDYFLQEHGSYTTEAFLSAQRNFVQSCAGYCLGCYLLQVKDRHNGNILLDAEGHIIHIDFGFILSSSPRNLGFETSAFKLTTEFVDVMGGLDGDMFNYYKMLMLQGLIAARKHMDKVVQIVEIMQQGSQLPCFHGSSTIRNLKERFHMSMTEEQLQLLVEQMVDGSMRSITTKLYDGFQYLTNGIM
T2 sequence (P42356 whole entry): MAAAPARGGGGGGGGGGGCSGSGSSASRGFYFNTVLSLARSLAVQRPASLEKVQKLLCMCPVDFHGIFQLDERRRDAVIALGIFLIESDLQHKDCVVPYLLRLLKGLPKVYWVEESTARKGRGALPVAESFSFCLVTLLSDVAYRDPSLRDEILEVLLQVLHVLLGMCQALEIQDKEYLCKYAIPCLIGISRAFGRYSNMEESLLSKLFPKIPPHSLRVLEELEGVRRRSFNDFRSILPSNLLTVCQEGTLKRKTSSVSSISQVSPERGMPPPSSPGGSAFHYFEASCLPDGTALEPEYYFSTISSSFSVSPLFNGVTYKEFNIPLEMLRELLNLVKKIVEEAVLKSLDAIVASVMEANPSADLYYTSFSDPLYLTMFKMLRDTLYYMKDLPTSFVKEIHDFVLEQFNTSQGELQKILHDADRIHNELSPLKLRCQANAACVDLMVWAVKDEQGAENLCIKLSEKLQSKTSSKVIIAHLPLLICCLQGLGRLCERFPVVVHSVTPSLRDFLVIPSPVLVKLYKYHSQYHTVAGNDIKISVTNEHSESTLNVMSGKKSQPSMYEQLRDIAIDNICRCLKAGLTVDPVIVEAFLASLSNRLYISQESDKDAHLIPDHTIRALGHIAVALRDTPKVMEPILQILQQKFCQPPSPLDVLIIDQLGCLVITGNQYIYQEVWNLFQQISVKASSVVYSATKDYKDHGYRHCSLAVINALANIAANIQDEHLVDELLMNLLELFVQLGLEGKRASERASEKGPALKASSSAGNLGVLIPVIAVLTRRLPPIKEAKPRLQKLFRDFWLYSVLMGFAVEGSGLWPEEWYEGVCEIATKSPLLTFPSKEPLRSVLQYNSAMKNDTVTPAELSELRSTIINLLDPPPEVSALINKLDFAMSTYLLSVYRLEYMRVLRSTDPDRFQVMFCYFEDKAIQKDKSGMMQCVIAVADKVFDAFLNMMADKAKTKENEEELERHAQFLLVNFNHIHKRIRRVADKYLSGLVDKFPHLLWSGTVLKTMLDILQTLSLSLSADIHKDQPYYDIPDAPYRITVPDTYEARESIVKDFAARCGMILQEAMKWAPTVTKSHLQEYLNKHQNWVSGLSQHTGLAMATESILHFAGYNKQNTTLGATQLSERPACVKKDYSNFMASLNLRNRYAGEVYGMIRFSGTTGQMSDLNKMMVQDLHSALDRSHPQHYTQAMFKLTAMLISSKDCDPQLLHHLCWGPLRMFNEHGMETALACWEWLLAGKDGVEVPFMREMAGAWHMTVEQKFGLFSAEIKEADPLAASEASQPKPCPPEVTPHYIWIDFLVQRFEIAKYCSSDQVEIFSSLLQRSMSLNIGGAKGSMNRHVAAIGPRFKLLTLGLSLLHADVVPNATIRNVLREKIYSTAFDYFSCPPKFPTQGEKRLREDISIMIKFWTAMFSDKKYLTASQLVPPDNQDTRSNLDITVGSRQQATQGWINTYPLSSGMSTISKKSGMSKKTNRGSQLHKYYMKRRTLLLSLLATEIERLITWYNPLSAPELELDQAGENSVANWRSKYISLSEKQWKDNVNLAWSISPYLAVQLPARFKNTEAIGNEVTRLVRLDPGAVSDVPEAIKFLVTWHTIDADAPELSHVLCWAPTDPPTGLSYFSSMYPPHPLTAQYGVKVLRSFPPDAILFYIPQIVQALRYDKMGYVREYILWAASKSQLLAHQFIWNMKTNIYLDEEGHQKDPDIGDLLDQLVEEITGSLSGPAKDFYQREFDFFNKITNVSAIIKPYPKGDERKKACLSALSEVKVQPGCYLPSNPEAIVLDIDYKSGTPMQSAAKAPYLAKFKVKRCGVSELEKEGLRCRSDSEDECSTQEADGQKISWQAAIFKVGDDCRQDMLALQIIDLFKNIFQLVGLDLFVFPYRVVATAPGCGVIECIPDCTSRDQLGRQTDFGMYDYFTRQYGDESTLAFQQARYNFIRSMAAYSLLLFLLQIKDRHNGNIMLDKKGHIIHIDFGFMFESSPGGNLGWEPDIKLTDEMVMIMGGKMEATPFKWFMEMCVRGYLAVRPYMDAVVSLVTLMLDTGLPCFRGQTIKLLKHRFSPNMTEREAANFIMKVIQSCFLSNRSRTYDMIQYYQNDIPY

Compound | EC50 [1] | CC50 [2] | CC50 [3] | half-life [4, 16] | half-life [4, 17] | half-life [5, 18] | half-life ([5]; with ritonavir (concentration not stated), + Ritonavir, read-out: HLM/MLM (t ½ min) + Ritonavir: HLM) | EC50 ([6]; Enterovirus A, EV71) | Papp [7] | EC50 [8] | CC50 [9] | EC50 [10] | CC50 [11] | CC50 [12] | HLM/MLM (t ½ min) + Ritonavir: HLM ([5]; + Ritonavir) | CC50 [13] | EC50 [6] | IC50 [14] | IC50 [15]
COc1ccc(-c2sc(NC(C)(C)C3CCOCC3)nc2C)cc1S(=O)(=O)Nc1c(C)cccc1F [Compound S-1] | 0.0005 µM | 18.2 µM | 15 µM | 0.133 h | 0.833 h | 0.1 h | 1.13 h | 0.0002 µM | 4 ×10⁻⁶ cm/s | 0.005 µM | 100 µM | 0.0024 µM and 0.002 µM |  |  |  |  |  |  | 
COc1ccc(-c2sc(NC(C)(C)C3CCOCC3)nc2C)cc1S(=O)(=O)Nc1cccnc1C [Compound S-3] | 0.0005 µM | 47.5 µM | 70.5 µM | 0.967 h | 2.65 h | 0.967 h |  | 0.0005 µM | 7.42 ×10⁻⁶ cm/s | 0.0005 µM | 86.6 µM | 0.0013 µM and 0.001 µM | 47 µM | 70 µM | 159/159 min | 86 µM |  |  | 
COc1ccc(-c2sc(NC(C)(C)C3CCOCC3)nc2C)cc1S(=O)(=O)Nc1ccc(F)cc1Cl [Compound S-4] | 0.0013 µM |  | 17.3 µM |  |  |  |  |  |  | 0.0013 µM | 36.5 µM |  |  | 17 µM |  | 36 µM |  |  | 
COc1ccc(-c2sc(NC3(C4CCOCC4)CC3)nc2C)cc1S(=O)(=O)Nc1ccc(Cl)cc1Cl [Compound S-14] | 0.014 µM | 39.4 µM | 36.4 µM |  |  |  |  | 0.0104 µM |  | 0.0144 µM | 37.2 µM | 33.3 µM and 33 µM | 39 µM | 36 µM |  | 37 µM | 0.01 µM |  | 
COc1ccc(-c2sc(NC(C)(C)c3ccccc3)nc2C)cc1S(=O)(=O)Nc1c(C)cccc1F [Compound S-32] |  | 100 µM |  | 0.367 h | 2.22 h | 0.283 h |  |  | 0.04 ×10⁻⁶ cm/s | 0.0002 µM |  | 0.0006 µM and 0.0003 µM |  |  | 159 min |  |  | < 0.1 µM | > 10 µM
COc1ccc(-c2sc(NC(C)(C)c3ccccc3)nc2C)cc1S(=O)(=O)Nc1ccc(O)cc1 [Compound S-38] | 0.0002 µM |  |  |  |  |  |  |  |  | 0.0006 µM |  |  |  |  |  |  |  |  | 
COc1ccc(-c2sc(NC(C)(C)c3cccnc3)nc2C)cc1S(=O)(=O)Nc1c(C)cccc1F [Compound S-39] | 0.0002 µM | 19.9 µM | 47.7 µM | 1.12 h | 1.38 h | 1.38 h |  | 0.0002 µM | 7.6 ×10⁻⁶ cm/s | 0.0002 µM | 99 µM | 0.0008 µM | 19 µM | 47 µM | 159 min | 99 µM |  |  | 
COc1ccc(-c2sc(NC(C)(C)c3ccncc3)nc2C)cc1S(=O)(=O)Nc1ccncc1C [Compound S-49] |  | 71.4 µM | 66.3 µM |  |  |  |  | 0.001 µM |  | 0.01 µM | 29.5 µM | 0.0507 µM |  |  |  |  |  |  | 
COc1ccc(-c2sc(NC(C)(C)C3CCOCC3)nc2C)cc1S(=O)(=O)Nc1ccncc1C [Compound S-50] |  | 37.6 µM | 46.6 µM |  |  |  |  | 0.0012 µM |  | 0.0076 µM | 38.1 µM | 0.0128 µM |  |  |  |  |  |  | 
COc1ccc(-c2sc(NC(C)(C)C3CCN(C(C)=O)CC3)nc2C)cc1S(=O)(=O)Nc1ccc(F)cc1Cl [Compound S-51] |  | 37 µM | 52.7 µM |  |  |  |  | 0.0013 µM |  | 0.0015 µM | 62.1 µM | 0.0115 µM |  |  |  |  |  |  | 
COc1ccc(-c2sc(NC(C)(C)C3CCNCC3)nc2C)cc1S(=O)(=O)Nc1ccc(F)cc1Cl [Compound S-52] |  | 2.23 µM | 2.32 µM |  |  |  |  | 75 µM |  | 75 µM | 3.07 µM | 100 µM |  |  |  |  |  |  | 
COc1ccc(-c2sc(NC(C)(C)C3CCNCC3)nc2C)cc1S(=O)(=O)Nc1cccnc1C [Compound S-53] |  | 100 µM | 100 µM |  |  |  |  | 3.56 µM |  | 12.4 µM | 47.9 µM | 12.3 µM |  |  |  |  |  |  | 
COc1ccc(-c2sc(NC34CC(C3)C4)nc2C)cc1S(=O)(=O)Nc1c(C)cccc1F [Compound S-55] |  | 22.1 µM | 19.4 µM |  |  |  |  | 0.0018 µM |  | 0.001 µM | 100 µM | 0.0068 µM |  |  |  |  |  |  | 
COc1ccc(-c2sc(NC(C)(C)c3ccccc3)nc2C)cc1S(=O)(=O)NC1CCN(S(C)(=O)=O)CC1 [Compound S-57] | 0.0009 µM | 100 µM | 95.2 µM |  |  |  |  | 0.0009 µM |  | 0.0009 µM | 96.1 µM | 0.001 µM |  | 95 µM |  |  |  |  | 
COc1ccc(-c2sc(NC(C)(C)C3CCCCC3)nc2C)cc1S(=O)(=O)Nc1c(C)cccc1F [Compound S-58] | 0.022 µM | 100 µM | 100 µM |  |  |  |  | 0.0068 µM |  | 0.0225 µM | 100 µM | 0.0135 µM and 0.013 µM |  |  |  |  | 0.006 µM |  | 
COCC(C)(C)Nc1nc(C)c(-c2ccc(OC)c(S(=O)(=O)Nc3c(C)cccc3F)c2)s1 [Compound S-63] |  | 40.6 µM | 27.7 µM |  |  |  |  | 0.0084 µM |  | 0.0015 µM | 83.8 µM | 0.0034 µM |  |  |  |  |  |  | 
COc1ccc(-c2oc(NC(C)(C)c3ccccc3)nc2C)cc1S(=O)(=O)Nc1c(C)cccc1F [Compound S-65] |  | 1.7 µM | 46.3 µM |  |  |  |  | 0.0027 µM |  | 0.0018 µM | 31.3 µM | 0.0024 µM |  |  |  |  |  |  | 
COc1ccc(-c2sc(N[C@@H](C)c3ccccc3)nc2C)cc1S(=O)(=O)Nc1c(C)cccc1F [Compound S-74] | 0.0009 µM | 100 µM | 95 µM |  |  |  |  | 0.0009 µM |  |  | 95 µM | 0.001 µM |  |  |  |  |  |  | 
COc1ccc(-c2sc(N[C@H](C)c3ccccc3)nc2C)cc1S(=O)(=O)Nc1c(C)cccc1F [Compound S-75] | 0.022 µM | 100 µM | 100 µM |  |  |  |  | 0.006 µM |  |  | 100 µM | 0.013 µM |  |  |  |  |  |  | 
COc1ccc(-c2sc(NCC3CCOCC3)nc2C)cc1S(=O)(=O)Nc1ccc(F)cc1Cl [Compound S-77] | 0.826 µM |  | 66 µM |  |  |  |  |  |  |  |  |  |  |  |  |  |  |  | 
